Several values for one entry are separate records, joined by “and”; a condition that tells them apart may be missing. Equal entries are not always repeated. Activity calls are given as the source filed them.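 How the source made its calls: active means compounds giving half or more protection of infected cells from virus-caused growth loss, again on retest; inactive means the rest.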
Tested on: CEM cells HIV-1 protection, formazan growth assay
Assay: NCI AIDS Antiviral Assay
Settings: for IC50: measured here: growth of uninfected CEM cells
How it was run: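 Protection of CEM cells against HIV-1 was scored from cell growth (soluble formazan) across five concentrations, with parallel uninfected cells. Lack of protection may reflect toxicity.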

Row | Structure (SMILES) | EC50 | IC50 | outcome
1 | CC(C)CC[CH2][Pb]([CH2]CCC(C)C)([CH2]CCC(C)C)[O]C(=O)C(Cl)(Cl)Cl | > 200 µM | 3.09 µM | 
2 | CN(C)P(=O)(N(C)C)N(C)C | > 200 µM | > 200 µM | 
3 | CC1(C)O[C@]2(C)CC[C@@H]1[C@@H](O)[C@@H]2N1CCCCC1 | > 380 µM | > 380 µM | 
4 | CCOP(=O)(OCC)/C(C#N)=C/c1ccc(-c2cc(C(F)(F)F)cc(C(F)(F)F)c2)o1 | > 200 µM | 11.7 µM | 
5 | CNC(=S)SC1=NS(=O)(=O)c2ccccc2N1 | > 234 µM | 174 µM | 
6 | COc1ccc(Nc2nc3ccccc3nc2-c2cccs2)cc1 | > 15.5 µM | > 15.5 µM | 
7 | CCCCCCc1cc2cc(C(=O)Nc3nc(C45CC6CC(CC(C6)C4)C5)cs3)c(=O)oc2cc1O | > 100 µM | 8.51 µM | 
8 | C=C(C)[C@@H]1CC[C@@H](C)[C@](O)([C@@H]2C[C@@H]([C@H](COC(=O)c3ccccc3)OC(=O)c3ccccc3)OC2=O)C1 | > 100 µM | > 100 µM | 
9 | CC(C)(O)CCC(=O)[C@](C)(O)[C@H]1[C@H](O)C[C@@]2(C)[C@@H]3CC=C4[C@@H](C[C@@H](O)[C@@H](O)C4(C)C)[C@]3(C)C(=O)C[C@]12C | > 200 µM | > 200 µM | 
10 | CC(C)/C(Cl)=N/OC(=O)Nc1cccc(C(F)(F)F)c1 | > 20 µM | 3.02 µM | 
11 | Cc1occc1C(=S)Nc1ccc(Cl)c(C(=O)OC(C)C2CC2)c1 (stereo not drawn) | 0.0234 µM | 47.9 µM | 
12 | COc1ccc(-c2c(C3=NCCN3)nnn2-c2ccc(Cl)cc2)cc1 | > 126 µM | 91.2 µM | 
13 | Cn1c(=O)c2nncnc2n(C)c1=O | > 200 µM | > 200 µM | 
14 | COc1ccc2c(c1)OC[C@@H]1c3cc(NC(=O)c4ccccc4)c(OCc4ccccc4)cc3N(S(=O)(=O)c3ccccc3)[C@H]21 | > 200 µM | > 200 µM | 
15 | CCOC(=O)C1C(=O)CN2CCc3c([nH]c4ccccc34)C12 (stereo not drawn) | > 29.5 µM | > 29.5 µM | 
16 | CC1CC2=C(S(=O)(=O)c3ccccc3)CC(S(=O)(=O)c3ccccc3)(S(=O)(=O)c3ccccc3)CC21 (stereo not drawn) | > 50.1 µM | > 50.1 µM | 
17 | C=C1CCc2ccccc2C1=O | > 200 µM | 31.6 µM | 
18 | N=N/C(=C\c1c(O)[nH]c2ccccc12)c1ccccc1 | > 200 µM | 3.31 µM | 
19 | COP(C)(=O)C(Cc1c[nH]c2ccccc12)NC(=O)OCc1ccccc1 (stereo not drawn) | > 200 µM | > 200 µM | 
20 | O=C1c2cccc3cccc(c23)C(=O)N1CCO | > 200 µM | 13.8 µM | 
21 | Cn1c2nc(=Nc3ccc(Cl)cc3)n3ccc4ccccc4c3c2c(=O)n1-c1ccccc1 | > 200 µM | 158 µM | 
22 | O=[N+]([O-])c1ccc(/C=N/Nc2nnc3c4ccccc4c4ncccc4c3n2)o1 | > 100 µM | > 100 µM | 

Row | Structure (SMILES) | EC50 | IC50 | outcome
23 | COCC1OC(N2C(=O)NC(=O)[C@@H]3C=C4CCCCC4=C[C@@H]32)C(OC)C1OC (stereo partly drawn) | > 200 µM | 105 µM | 
24 | CCOP(=S)(N/N=C\C(C)(C)C1CCCCC1)OCC | > 200 µM | 30.9 µM | 
25 | CC1(C)NC(=O)C2(CC(O)C(O)C(OC(=O)c3ccccc3)C2)O1 (stereo not drawn) | > 263 µM | > 263 µM | 
26 | CCO/C=C1\N=C(c2ccccc2Br)OC1=O | > 316 µM | > 316 µM | 
27 | CCCC/C=C/Cc1[nH]c2ccccc2c(=O)c1C | > 28.2 µM |  | 
28 | COc1cc(C(=O)n2c3ccc(Br)cc3c3nc4ccccc4nc32)cc(OC)c1OC | > 50.1 µM | > 50.1 µM | 
29 | COc1ccc(COCCOCc2nc(C#N)c(N)o2)cc1 | > 200 µM | 135 µM | 
30 | O=c1[nH]nc(-c2ccccc2)n1Nc1ccccc1 | > 200 µM | > 200 µM | 
31 | C/C=C(\C)C(=O)O[C@@H]1CC(C)(C)CC2C3=CCC4[C@]56CC[C@](O)(OC5)C(C)(C)C6CC[C@@]4(C)C3(C)CC[C@]21C(=O)O (stereo partly drawn) | > 200 µM | 18.2 µM | 
32 | Cc1ccc2nc3nc(C)c(C)nc3nc2c1 | 1.15 µM | 14.5 µM | 
33 | O=C1CCCc2ccc3c(c21)CC1(Cc2ccccc2C1)C3 | > 200 µM | 25.1 µM | 
34 | O=C1CN(C=C(C(=O)c2ccccc2)C(=O)c2ccccc2)C(=S)N1 |  |  | inactive
35 | O=C1C(Cl)N(c2ccccc2)C1c1c[nH]c2ccccc12 (stereo not drawn) | > 316 µM | 288 µM | 
36 | O=[N+]([O-])/C=C/c1cc2ccc3ccccc3c2[nH]1 | > 200 µM | 1.02 µM | 
37 | Cc1[nH]nc2c1NC(=O)OC2 | > 1170 µM | > 1170 µM | 
38 | CCOC(=O)c1c(NC(=O)Nc2ccccc2)c(C(N)=O)c2n1CCCCC2 | > 100 µM | > 100 µM | 
39 | O=C1CCCCC1CN(Cc1ccccc1)Cc1ccccc1 (stereo not drawn) |  |  | inactive
40 | Cc1nc2ccccc2c(=O)n1NC(=S)NC1CCCCC1 | > 4.57 µM | > 4.57 µM | 
41 | CCCC1(CCC)c2cc(/C=N\O)ccc2-c2ccc(-c3ccc(C(C)(C)C)cc3)cc21 | > 200 µM | 37.2 µM | 
42 | CCC(Oc1ccc(OC)c2ccccc(=O)c12)C(=O)O (stereo not drawn) |  |  | inactive
43 | CCCN(CCCCC(NC(C)=O)C(=O)NCc1ccccc1)C(=O)NCCCl (stereo not drawn) | > 589 µM | > 589 µM | 
44 | CCCCCCCCCCCCCCCCOCC(Cl)COP(=O)(O)OP(=O)(O)OCC1OC(n2cnc3c(N)ncnc32)C(O)C1O (stereo not drawn) | > 100 µM | > 100 µM | 

Row | Structure (SMILES) | EC50 | IC50 | outcome
45 | Cc1cn(C2CC(N=C(N)NO)C(CO)O2)c(=O)[nH]c1=O (stereo not drawn) | > 5250 µM | 708 µM | 
46 | S=c1nc2[nH]c3ccc(Br)cc3c2n[nH]1 | > 200 µM | 27.5 µM | 
47 | N#C/C(=C(\c1ccccc1)c1ccccn1)c1ccccc1 | > 20 µM | 1.1 µM | 
48 | C=C1CCc2occ(C)c2C2C1C1=C(CC(C)C1=O)C1OC12C (stereo not drawn) | > 219 µM | > 219 µM | 
49 | CC(=O)c1cccc(NC(=O)C(=O)C(C(=O)NN)c2ccccc2)c1 (stereo not drawn) | > 55 µM | > 55 µM | 
50 | NC1=NC(c2ccccc2)C2=C(N1)C(=O)N(Cc1ccccc1)C2 (stereo not drawn) | > 204 µM | 72.4 µM | 
51 | COC(=O)C/C(C(=O)OC)=C1\CCC2=C1N1CCCC1C2(CC(=O)OC)C(=O)OC (stereo not drawn) | > 162 µM | > 162 µM | 
52 | CC(=O)N(C(C)=O)c1c(C)cc(-c2cccs2)oc1=O | > 200 µM | > 100 µM | 
53 | Cc1cn(C2CC(F)C(COC(=O)CCCCCCCCCCCN=[N+]=[N-])O2)c(=O)[nH]c1=O (stereo not drawn) | 0.000631 µM | 2 µM | 
54 | Clc1ccc(SSc2ccc(Cl)cc2)cc1 | > 200 µM | 3.31 µM and 5.13 µM | 
55 | N#CNC(=NCC1CCCO1)Nc1cccnc1 (stereo not drawn) | > 1020 µM | 933 µM | 
56 | CCC(C)c1c(NC(=O)c2ccccc2)o[nH]c1=O (stereo not drawn) | > 200 µM | > 200 µM | 
57 | CCOC(=O)C(C)NC(=O)NC12CC3CC(CC(F)(C3)C1)C2 (stereo not drawn) | > 219 µM | > 200 µM | 
58 | COC(=O)C1(C)OS(=O)(=O)c2ccccc21 (stereo not drawn) | > 537 µM | > 537 µM | 
59 | Cc1ccc(S(=O)(=O)n2nc(Oc3ccc(Cl)c(Cl)c3)nc2N)cc1 | > 3.63 µM | > 3.63 µM | 
60 | COc1ccc(C2(C(OC)OC)NC(=O)N(C)C2=O)cc1 (stereo not drawn) | > 200 µM | > 200 µM | 
61 | CC(=O)NC1=NC(=O)/C(=C\c2cccc(Cl)c2Cl)N1C | > 200 µM | 81.3 µM | 
62 | COc1ccc(-n2c(C)nc3ccc(NC4OC(CO)C(O)C(O)C4O)cc3c2=O)cc1 (stereo not drawn) | > 200 µM | > 200 µM | 
63 | COC(=O)c1ccc(/C=C/c2cc(O)ccc2O)cc1 | > 20 µM | 3.09 µM | 
64 | CC(CSC(=N)N)C(N)=O (stereo not drawn) | > 200 µM | > 200 µM | 
65 | C=C1CCC/C(=N/NC(N)=O)C12CC2 | > 200 µM | > 200 µM | 
66 | CCN1C(=O)c2ccccc2C1(O)c1ccc(Cl)cc1 (stereo not drawn) | > 200 µM | 151 µM | 

Row | Structure (SMILES) | EC50 | IC50 | outcome
67 | CCC1(CC)C(=O)NN(C(=O)c2ccccc2)C1=O | > 200 µM | > 200 µM | 
68 | Clc1ccc(-c2cc(=[N+]3CC[N+](=c4cc(-c5ccc(Cl)cc5)ss4)CC3)ss2)cc1 | 6.31 µM | 129 µM | 
69 | O=C1c2sccc2[C@H](NC(=O)C(F)(F)F)[C@@H]1Cl | > 200 µM | > 200 µM | 
70 | COC(=O)c1c2c(cc3c1CC1(C3)Cc3cc4c(c(C(=O)OC)c3C1)CCC4)CCC2 | > 200 µM | > 200 µM | 
71 | O=C(CN1CCCCC1)c1ccc(CCc2ccc(C(=O)CN3CCCCC3)cc2)cc1 | > 200 µM | 95.5 µM | 
72 | O=C(NC1C(=O)NNC1c1cccc([N+](=O)[O-])c1)c1ccccc1 (stereo not drawn) | > 288 µM | > 288 µM | 
73 | C/C(=N\NC(N)=S)C(CN(CC(C)C)CC(C)C)C(=O)Nc1ccc(C)cc1C (stereo not drawn) | > 85.1 µM | > 85.1 µM | 
74 | O=C1c2ccccc2C(=O)N1[C@@H](Cc1ccccc1)C(=O)n1cccc1CO | > 200 µM | 174 µM | 
75 | Cc1nn(-c2ccc([N+](=O)[O-])cc2)c2c1C(C)(C)C(C#N)=C(N)O2 | > 200 µM | > 200 µM | 
76 | Nc1nc(N)c(N=O)c(=O)[nH]1 | > 200 µM | > 200 µM | 
77 | COc1ccc(Sc2ccccc2[N+](=O)[O-])cc1 |  |  | inactive
78 | Cc1cc2c(cc1C)NC(=O)CC(c1ccccc1)=N2 | > 200 µM | > 200 µM | 
79 | CCCCCCCC/C=C/CCCCCCCC1CC(O)C(=O)O1 (stereo not drawn) | > 200 µM | 191 µM | 
80 | C[C@@H]1OC2(O)[C@@H]3CCCN3C(=O)N(Cc3ccccc3)N2C1=O (stereo partly drawn) | > 200 µM | > 200 µM | 
81 | Cc1c(N)nc(C(CC(N)=O)NCC(N)C(N)=O)nc1C(=O)NC(C(=O)NC(C)C(O)C(C)C(=O)NC(C(=O)NCCc1nc(-c2nc(C(=O)NCCCNCCCCN)cs2)cs1)C(C)O)C(OC1OC(CO)C(O)C(O)C1OC1OC(CO)C(O)C(OC(N)=O)C1O)c1cnc[nH]1 (stereo not drawn) |  |  | inactive
82 | CC(C)CCCC(C)C1CCC2C3CC(OC4OC(CO)C(O)C(O)C4O)C4C[C@@H](OS(=O)(=O)O)CC[C@]4(C)C3CC[C@]12C (stereo partly drawn) | > 37.2 µM | 15.1 µM | 
83 | CC(C)=C1C2CCC1C(CO)C2CO (stereo not drawn) | > 457 µM | > 457 µM | 
84 | O=c1[nH]nc(Nc2ccccc2)c2nnn(C3CCCCC3)c12 | > 174 µM | > 174 µM | 
85 | O=C1C(c2ccc([N+](=O)[O-])cc2)=C(Cl)C(=O)c2c(O)cccc21 | > 398 µM | 8.71 µM | 
86 | C=CCNC(=O)N(CCC)CCCCC(NC(C)=O)C(=O)NCc1ccccc1 (stereo not drawn) | > 89.1 µM | > 89.1 µM | 
87 | N#CC1N(C(=O)c2ccc(F)cc2)c2ccccc2N1C(=O)c1ccc(F)cc1 | > 200 µM | 74.1 µM | 
